Six compounds from patent US20120207729A1, “SUBSTITUTED BENZOAZOLE PDE4 INHIBITORS FOR TREATING PULMONARY AND CARDIOVASCULAR DISORDERS” (DECODE GENETICS EHF, priority 2007, published 2012) can be followed below.

Bounds are passed on as bounds.

In one assay the target is human PDE4B (Homo sapiens, UniProt Q07343). Put plainly: In-vitro real-time enzyme-coupled spectrophotometric assay for PDE4 enzymes. It counts as biochemical. Particulars: NADH-coupled assay, absorbance at 340 nm, read-out: IC50 for human PDE4B isozyme. As to the method:
(§1) In-vitro assay for PDE4 enzymes. The in-vitro activity of PDE4 enzymes and the in-vitro potency of therapeutic agents described in the present invention was measured using a real-time, enzyme-coupled spectrophotometric assay. By using three different coupling enzymes, the product of the PDE4 reaction is coupled to the oxidation of the reduced form β-nicotinamide adenine dinucleotide (NADH), which dissipation can be monitored spectrophotmetrically at […].
(§2) Assay description. Buffer A containing 50 mM Tris, pH 8.0, 16 mM MgCl2 and 80 mM KCl is prepared and stored at room temperature. Buffer B containing 50 mM Tris, pH 8.0 is prepared and stored at room temperature. Stock solutions of the following reagents are prepared in Buffer B and stored at −20° C.: Adenosine-5′-triphosphate (ATP), cyclic adenosine-5′-monophosphate (cAMP), phosphoenolpyruvate (PEP) and NADH. An assay mix is prepared by mixing Buffer A, […] (TCEP), ATP, PEP, NADH, myokinase (MK), pyruvate kinase (PK), lactate dehydroganese (LDH) and PDE4 to a final volume of 20 mL, which is enough for a single 96-well assay plate. Assay mix (180 μL) and test article (10 μL) in 1:1 DMSO/H2O mixture is pre-incubated at room temperature for 10 min. The enzymatic reaction is initiated by addition of cAMP (10 μL). Final concentration of all components in the assay (200 μL/well) are as follows: 10 mM MgCl2, 50 mM KCl, 5 mM TCEP, 2.5% DMSO, 0.4 mM NADH, 1 mM PEP, 0.04 mM ATP, 5 units MK, 1 unit PK, 1 unit LDH and appropriate amount of PDE4. Reaction progress curves are monitored in a plate reader capable of measuring light absorbance at 340 nm. A decrease in light absorbance at 340 nm is due to oxidation of NADH. Positive controls containing no test article and negative controls containing no test article and no cAMP are included on every assay plate. Reaction rates are determined from the slopes of the linear portions of the progress curves. All data is percent normalized with respect to controls and presented as percent inhibition. Compounds BB-01, BB-02, BB-03, BB-04, BB-05, BB-08, BB-09 gave IC50<5 uM for human PDE4D and PDE4B isozymes.

The next assay concerns the target human PDE4D (Homo sapiens, UniProt Q08499). The assay is described as above. The class given is biochemical. Particulars: NADH-coupled assay, absorbance at 340 nm, read-out: IC50 for human PDE4D isozyme. How it is done: as §1, §2

human PDE4D, sequence (Q08499 whole entry): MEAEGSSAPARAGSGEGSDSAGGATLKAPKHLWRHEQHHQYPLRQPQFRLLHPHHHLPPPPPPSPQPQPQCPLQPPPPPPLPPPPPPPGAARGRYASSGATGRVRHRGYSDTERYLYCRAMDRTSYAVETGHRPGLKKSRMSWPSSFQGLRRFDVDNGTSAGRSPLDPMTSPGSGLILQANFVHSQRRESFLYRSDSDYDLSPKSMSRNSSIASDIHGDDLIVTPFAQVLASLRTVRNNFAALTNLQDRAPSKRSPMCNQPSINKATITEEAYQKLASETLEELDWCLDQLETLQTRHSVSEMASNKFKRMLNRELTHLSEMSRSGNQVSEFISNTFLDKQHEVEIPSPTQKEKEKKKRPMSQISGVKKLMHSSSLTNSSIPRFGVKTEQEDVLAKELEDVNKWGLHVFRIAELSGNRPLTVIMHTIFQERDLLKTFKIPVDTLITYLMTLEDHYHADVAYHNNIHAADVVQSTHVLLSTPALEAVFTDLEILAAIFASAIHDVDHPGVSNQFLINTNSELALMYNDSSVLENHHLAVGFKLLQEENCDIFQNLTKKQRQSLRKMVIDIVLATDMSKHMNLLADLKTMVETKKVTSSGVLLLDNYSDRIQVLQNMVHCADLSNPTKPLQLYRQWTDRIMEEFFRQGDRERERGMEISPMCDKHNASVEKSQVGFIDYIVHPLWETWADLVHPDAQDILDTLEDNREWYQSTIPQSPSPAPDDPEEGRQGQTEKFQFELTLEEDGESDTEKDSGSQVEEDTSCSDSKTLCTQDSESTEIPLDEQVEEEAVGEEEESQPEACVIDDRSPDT
human PDE4B, sequence (Q07343 whole entry): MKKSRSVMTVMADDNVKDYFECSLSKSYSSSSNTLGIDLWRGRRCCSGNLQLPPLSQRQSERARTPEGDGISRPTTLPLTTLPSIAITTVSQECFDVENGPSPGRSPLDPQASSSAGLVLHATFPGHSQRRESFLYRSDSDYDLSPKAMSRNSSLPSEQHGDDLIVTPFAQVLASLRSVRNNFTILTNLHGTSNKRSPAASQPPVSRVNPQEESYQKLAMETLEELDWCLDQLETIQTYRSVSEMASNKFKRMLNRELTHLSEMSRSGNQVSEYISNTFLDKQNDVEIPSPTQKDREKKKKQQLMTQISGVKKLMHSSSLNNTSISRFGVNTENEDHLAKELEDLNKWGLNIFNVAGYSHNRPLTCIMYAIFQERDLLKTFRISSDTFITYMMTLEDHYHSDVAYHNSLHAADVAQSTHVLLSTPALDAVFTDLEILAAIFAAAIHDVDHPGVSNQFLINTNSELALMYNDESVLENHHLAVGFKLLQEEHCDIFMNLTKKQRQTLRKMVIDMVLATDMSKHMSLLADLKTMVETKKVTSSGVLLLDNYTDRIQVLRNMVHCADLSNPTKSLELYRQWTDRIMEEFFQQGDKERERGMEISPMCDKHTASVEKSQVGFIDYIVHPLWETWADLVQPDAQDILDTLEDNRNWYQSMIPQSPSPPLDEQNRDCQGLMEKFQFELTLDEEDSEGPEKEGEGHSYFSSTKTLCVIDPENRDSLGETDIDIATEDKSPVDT

Consider `O=C(O)C1CCN1c1ccc(Cc2cc3scnc3c(-c3cccc(Cl)c3)c2F)cn1` (racemic) [BB-01, 1-{5-[4-(3-chloro-phenyl)-5-fluorobenzothiazol-6-ylmethyl]-pyridin-2-yl}-azetidine-2-carboxylic acid], for which the IC50 at human PDE4B and on human PDE4D was below 5 µM throughout.
With `O=C(O)[C@@H]1CCCN1c1ccc(Cc2cc3scnc3c(-c3cccc(Cl)c3)c2F)cn1` [BB-03, (S)-1-{5-[4-(3-chloro-phenyl)-5-fluoro-benzothiazol-6-ylmethyl]-pyridin-2-yl}-pyrrolidine-2-carboxylic acid], the IC50 on human PDE4B and at human PDE4D was below 5 µM each time.
As to `O=C(O)[C@@H]1CCN1c1ccc(Cc2cc3scnc3c(-c3cccc(Cl)c3)c2F)cn1` [BB-04, (S)-1-{5-[4-(3-chloro-phenyl)-5-fluoro-benzothiazol-6-ylmethyl]-pyridin-2-yl}-azetidine-2-carboxylic acid], the IC50 at human PDE4B and at human PDE4D was below 5 µM each time.
For `O=C(O)[C@H]1CCN1c1ccc(Cc2cc3scnc3c(-c3cccc(Cl)c3)c2F)cn1` [BB-05, (R)-1-{5-[4-(3-chloro-phenyl)-5-fluoro-benzothiazol-6-ylmethyl]-pyridin-2-yl}-azetidine-2-carboxylic acid], the IC50 on human PDE4B and on human PDE4D was below 5 µM in each case.
With `Cc1nc2c(-c3cccc(Cl)c3)cc(Cc3ccc(N4CC[C@H]4C(=O)O)nc3)cc2s1` [BB-08, (S)-1-{5-[4-(3-chloro-phenyl)-2-methyl-benzothiazol-6-ylmethyl]-pyridin-2-yl}-azetidine-2-carboxylic acid], the IC50 at human PDE4B and on human PDE4D was below 5 µM each time.
As to `Cc1nc2c(-c3cccc(Cl)c3)cc(Cc3ccc(N4CC[C@@H]4C(=O)O)nc3)cc2s1` [BB-09, (R)-1-{5-[4-(3-chloro-phenyl)-2-methyl-benzothiazol-6-ylmethyl]-pyridin-2-yl}-azetidine-2-carboxylic acid], the IC50 at human PDE4B and at human PDE4D was below 5 µM throughout.
